Results on seven compounds are retold here after publication PMC9301920, “Physiologically Based Toxicokinetic Modeling of Bisphenols in Zebrafish (Danio rerio) Accounting for Variations in Metabolic Rates, Brain Distribution, and Liver Accumulation” (Environmental Science & Technology, 2022).

Counter-ions that a name gives are not always drawn. Like-named read-outs stand apart in the source and are kept apart here.

The nature of data set [1]: In vitro biotransformation rate, rainbow trout liver S9 (OECD TG 319). The following applies: for CLin vivo,int (in vivo intrinsic clearance): from measured S9 clearance, transformed as suggested by Nichols et al.; for CL (clearance rate): in vitro incubation with rainbow trout liver S9, assuming 163 mg S9 protein/g liver. Format: in vitro ADME. As to the method:
In brief, rainbow trout liver S9 homogenate was preincubated in buffer and cofactors, followed by 120 min of incubation with bisphenol. From each duplicate, 50 μL of subsamples was taken at timepoints 0, 2, 5, 15, 30, 60, 90, and 120 min and mixed with 200 μL of ice-cold methanol. The protocol of the procedure is described further in Section 2.
1042. Biotransformation rate estimation methodology
106Trinova Biochem; Lot: 180216) was pre-incubated at 11°C in K 2HPO4/KH2PO4 buffer
107(pH=7.8; 1 mL final volume) containing alamethicin from Trichoderma viride (25 μg/mL), and
108cofactors NADPH (2 mM), UDPGA (2 mM), GSH (5 mM), and PAPS (0.1 mM). After 10 min
109of preincubation, biotransformation was started by adding 5 µL of bisphenol test compound
110dissolved in methanol (1 µM final concentration). […]

Data set [2] deals with Estrogen receptor (ER). Also on record: method as in Tox21. The conditions noted are these: ATG ERE CIS up assay; ref Tox21; cited from earlier work.
In data set [3] the target is Estrogen receptor (ER). Further details: method as in Tox21. The conditions noted are these: ATG Era Trans up assay; ref Tox21; cited from earlier work.
The test system of data set [4] is zebrafish. The conditions noted are these: cited from earlier work.
For data set [5] the following is noted: cells marked g; ref Staples et al. 1998; cited from earlier work.
In data set [6] the test system is zebrafish. The conditions noted are these: cited from earlier work. The source holds these as a separate data set.
For data set [7], the target named is Estrogen receptor (ER). Also on record: method as in Kitamura et al. 2005. The following applies: ERE-luciferase reporter assay, MCF-7 cells; ref Kitamura et al. 2005; cited from earlier work. In general terms: Reporter assays use an easily measured gene product as a stand-in for the process of interest.
The conditions of data set [8]: measured human values; ref CompTox Dashboard; cited from earlier work.
[9] abbreviates: metabolite, Female, whole body, Observed, ref Shi et al. 2016.
Setting [10] is: metabolite, Male, whole body, Observed, ref Shi et al. 2016.
Setting [11] is: metabolite, Female, whole body, Observed, ref Lindholst et al. 2003.
Where [12] appears, read: 20 μg/L, female, liver, observed, ref Shi et al. 47.
Setting [13] is: 20 μg/L, female, ovaries, observed, ref Shi et al. 47.
Where [14] appears, read: 20 μg/L, female, whole body, observed, ref Shi et al. 47.
Where [15] appears, read: 20 μg/L, male, liver, observed, ref Shi et al. 47.
Setting [16] is: 20 μg/L, male, testes, observed, ref Shi et al. 47.
Setting [17] is: 20 μg/L, male, whole body, observed, ref Shi et al. 47.

One may read the EC50 as the concentration that produces a half-maximal response. `CC(c1ccccc1)(c1ccc(O)cc1)c1ccc(O)cc1` [BPAP, bisphenol AP]: the CL is recorded as 1.80 mL/(h x mg) in data set [1] (both series combined), 1.79 mL/(h x mg) in data set [1] (series 1 (s1)) and 1.82 mL/(h x mg) in data set [1] (series 2 (s2)). Further, the “CLin vivo,int (in vivo intrinsic clearance)” value (“CLin vivo,int” for short) in data set [1] is listed as 106 L/d/Kg fish. In addition, the “CL (clearance rate)” value in data set [1] is 7.06 × 10^3 mL/d/g liver. The “k (first-order disappearance rate constant)” value in data set [1] (series 1 (s1)) stood at 1.73 h⁻¹; in data set [1] (series 2 (s2)), 1.74 h⁻¹. Moreover, the figures for the half-maximal effective concentration (EC50) at Estrogen receptor (ER) [2] and at Estrogen receptor (ER) [3] were 290 nM and 120 nM, respectively.

For orientation: Cmax means the highest concentration seen after dosing. In the case of `O=C(O)[C@H]1O[C@@H](Oc2ccc(C(c3ccc(O)cc3)(C(F)(F)F)C(F)(F)F)cc2)[C@H](O)[C@@H](O)[C@@H]1O` [BPAF-GA, BPAF glucuronic acid], the results for the AUC with zebrafish [4] (setting [9]) and with zebrafish [4] (setting [10]) were 6.54 µg/g/day and 3.54 µg/g/day, respectively. In addition, the maximum concentration (Cmax) in the data set on zebrafish [4] (setting [9]) was 1.09 µg/g; with zebrafish [4] (setting [10]) it was 0.60 µg/g. In data set [5], the Ratio blood-plasma was 1.00.

Take `Cc1cc(C(C)(C)c2ccc(O)c(C)c2)ccc1O` [BPC, bisphenol C]: the CL in data set [1] (both series combined) is reported as 1.03 mL/(h x mg); in data set [1] (series 1 (s1)) it was 1.01 mL/(h x mg); in data set [1] (series 2 (s2)), 1.05 mL/(h x mg). The “CLin vivo,int” value in data set [1] was 60.6 L/d/Kg fish. The “CL (clearance rate)” value in data set [1] was 4.04 × 10^3 mL/d/g liver. The “k (first-order disappearance rate constant)” value in data set [1] (series 1 (s1)) was determined as 1.03 h⁻¹; in data set [1] (series 2 (s2)), 1.05 h⁻¹.

Regarding BPA glucuronic acid [BPA-GA], in the data set with zebrafish [6] (setting [11]), the AUC was 109 µg/g/day, the maximum concentration (Cmax) is 16.2 µg/g and the t1/2 was 196 h. In data set [5], the Ratio blood-plasma is listed as 1.00.

As to `O=S(=O)(c1ccc(O)cc1)c1ccc(O)cc1` [BPS, bisphenol S], the “k (first-order disappearance rate constant)” value in data set [1] (series 1 (s1)) came out at 0.41 h⁻¹; in data set [1] (series 2 (s2)) it was 0.48 h⁻¹. Besides, the EC50 on Estrogen receptor (ER) [7] was 1100 nM; at Estrogen receptor (ER) [2] it was 1420 nM; on Estrogen receptor (ER) [3], 800 nM.

In the case of `Oc1ccc(C(c2ccc(O)cc2)(C(F)(F)F)C(F)(F)F)cc1` [BPAF, bisphenol AF], the CL in data set [1] (both series combined) is 0.78 mL/(h x mg); in data set [1] (series 1 (s1)), 0.75 mL/(h x mg); in data set [1] (series 2 (s2)) it was 0.80 mL/(h x mg). Also, in data set [1], the “CLin vivo,int” value amounted to 45.5 L/d/Kg fish. Also, the “CL (clearance rate)” value in data set [1] is recorded as 3.04 × 10^3 mL/d/g liver. Also, the “k (first-order disappearance rate constant)” value came to 0.73 h⁻¹ in data set [1] (series 1 (s1)) and 0.78 h⁻¹ in data set [1] (series 2 (s2)). Further, the AUC in the data set with zebrafish [4] (setting [12]) is 1.38 µg/g/day; in the data set with zebrafish [4] (setting [13]), 1.50 µg/g/day; with zebrafish [4] (setting [14]) it was 0.8 µg/g/day; with zebrafish [4] (setting [15]) it was 4.93 µg/g/day; with zebrafish [4] (setting [16]), 3.23 µg/g/day; in the data set with zebrafish [4] (setting [17]), 1.25 µg/g/day. In addition, the BCF with zebrafish [4] (setting [12]) is reported as 11.9; in the data set with zebrafish [4] (setting [13]), 10.9; in the data set on zebrafish [4] (setting [14]), 7.04; in the data set on zebrafish [4] (setting [15]), 40.5; in the data set with zebrafish [4] (setting [16]), 27.5; in the data set on zebrafish [4] (setting [17]) it was 9.80. Also, the maximum concentration (Cmax) with zebrafish [4] (setting [12]) is 0.24 µg/g; in the data set with zebrafish [4] (setting [13]), 0.22 µg/g; with zebrafish [4] (setting [14]), 0.14 µg/g; with zebrafish [4] (setting [15]), 0.81 µg/g; in the data set on zebrafish [4] (setting [16]), 0.55 µg/g; with zebrafish [4] (setting [17]) it was 0.20 µg/g. Also, the t1/2 with zebrafish [4] (setting [12]) was 204 h; in the data set with zebrafish [4] (setting [13]), 190 h; in the data set with zebrafish [4] (setting [14]), 120 h; with zebrafish [4] (setting [15]), 610 h; in the data set with zebrafish [4] (setting [16]), 20.4 h; in the data set on zebrafish [4] (setting [17]) it was 85.9 h. Moreover, the “Funbound (plasma fraction unbound)” value in data set [8] is given as 0.010.

For `CC(C)(c1ccc(O)cc1)c1ccc(OS(=O)(=O)O)cc1` [BPA sulfate], the “concentrations relative to those of the glucuronide” value in the data set on zebrafish [6] (zebrafish, in vivo) is 1000 times lower.
